Test results: paper PMC10057977, “Use of In Vivo Imaging and Physiologically-Based Kinetic Modelling to Predict Hepatic Transporter Mediated Drug–Drug Interactions in Rats” (Pharmaceutics, 2023)
Read-outs that look alike come from different tables or passages of the source.

What was measured:
rOatp1b = target: T1, rOatp1b (Rattus norvegicus, UniProt Q9QZX8); assay type: in vivo; settings: for Simple Effect Size (95% CI) K^trans: gadoxetate hepatic plasma clearance; for Simple Effect Size (95% CI) K^trans / Simple Effect Size (95% CI) khe: control − treatment, positive = decrease; for Simple Effect Size (95% CI) khe: gadoxetate hepatic uptake
T1 construct: from tissue; host or cells: liver of living male Wistar rats (Charles River Laboratories)
T1 sequence (Q9QZX8 1-687): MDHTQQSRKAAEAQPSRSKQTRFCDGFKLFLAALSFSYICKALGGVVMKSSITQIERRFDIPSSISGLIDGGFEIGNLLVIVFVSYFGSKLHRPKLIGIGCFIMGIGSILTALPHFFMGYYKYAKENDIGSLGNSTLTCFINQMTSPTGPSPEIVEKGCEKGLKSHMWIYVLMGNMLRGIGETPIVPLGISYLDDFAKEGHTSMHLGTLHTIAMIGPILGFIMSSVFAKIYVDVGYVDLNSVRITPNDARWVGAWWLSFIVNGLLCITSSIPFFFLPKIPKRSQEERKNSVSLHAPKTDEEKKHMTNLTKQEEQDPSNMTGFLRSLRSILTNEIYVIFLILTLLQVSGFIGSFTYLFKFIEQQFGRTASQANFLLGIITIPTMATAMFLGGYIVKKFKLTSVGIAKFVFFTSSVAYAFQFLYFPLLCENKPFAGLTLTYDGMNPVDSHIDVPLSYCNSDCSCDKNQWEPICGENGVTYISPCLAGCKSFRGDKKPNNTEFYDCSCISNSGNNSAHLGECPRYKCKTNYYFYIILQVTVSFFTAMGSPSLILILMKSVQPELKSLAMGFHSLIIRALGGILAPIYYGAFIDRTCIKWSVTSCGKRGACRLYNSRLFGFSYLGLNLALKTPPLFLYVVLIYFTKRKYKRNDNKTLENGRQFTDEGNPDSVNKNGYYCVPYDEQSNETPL
Excerpt: The tracer-kinetic model was developed to enable estimation of rate constants of hepatobiliary efflux from DCE-MRI profiles in individual animals. In this approach, the liver was assumed to consist of two compartments, the extracellular space (e) and the hepatocytes (h). Since water exchanges rapidly between those spaces, the change in relaxation rate was a weighted average (Equation (4)). (4) ΔR1(t)=r1,e·ve·ce(t)+r1,h·vh·ch(t)
The proportionality constant, r1,τ [L⋅mmol^−1⋅s^−1] , is the relaxivity of the contrast agent for the compartment τ (extracellular space, e or hepatocytes, h) at the respective field strength, while vτ [mL/mL tissue] is the volume fraction of the compartment τ . Previously measured ex vivo r1,tau values for gadoxetate were used in this work, as per. The underlying assumptions of the PBPK and tracer-kinetic models, relating to physiological volumes and perfusion, are consistent, despite different parameterizations according to the purpose of each model. For example, Vliv,extr in the PBPK model is defined as an absolute volume (units = L; sum of liver plasma and interstitial volumes), while in the tracer-kinetic model, ve is a volume fraction (dimensionless), defined as Vliv,extr/Vliver , where Vliver is the total liver volume. While some analogy can be drawn between CLactive […], and CLbiliary and kbh, the interpretations are distinct. For example, the operating concentrations of the PBPK parameters CLactive […], and CLbiliary are the unbound concentrations of gadoxetate in plasma and hepatocytes, while the tracer-kinetic model is parameterized with respect to the total concentration of gadoxetate.
Since ce(t) is the input to the hepatocytes, and no backflux from hepatocytes to extracellular space is assumed, Equation (5) can be derived. (5) vh·ch(t)=e^−t/Th∗khe·ce(t) where Th is the mean transit time of gadoxetate in the hepatocytes [min] , and * is convolution. The extracellular space is assumed to be in equilibrium with the blood pool and therefore the concentration ce(t) is proportional to the concentration cp(t) in the plasma of the feeding artery, i.e., ce(t) = (1 − E)·cp(t), where E is the extraction fraction of gadoxetate in the liver. Combining this assumption with Equations (4) and (5), and using (1 − E)·khe = E·Fp, with Fp being the apparent plasma flow into the liver [mL/min/mL tissue volume] , gives Equation (6), the operational equation for gadoxetate DCE-MRI in the liver. (6) ΔR1(t)=(1−E)·ve·r1,p·cp(t)+E·Fp·r1,h ·e^−t/Th ∗cp(t)
The rate constants were derived as K^trans = E·Fp, khe = E·Fp/(1 − E), and kbh = vh/Th, with a literature value for vh. The plasma concentrations cp(t) were not reliably measured in small animals due to the small diameter of the main vessels compared to the resolution of the measurement. […] Therefore, the source term cp(t) was derived from a two-compartment pharmacokinetic model for gadoxetate (see Supplementary Material, Section S5), and a step function as input in the blood compartment. The parameters kbh and khe were fitted to the liver data using a model implementation in Python. For each rat considered in these studies, the rate constants K^trans, khe, and kbh were calculated, in both control and inhibitory phases. […] Statistical significance was assessed through a two-sided paired t-test, with p < 0.05 considered significant.

[1] = in vivo; cited from earlier work
[2] = cited from earlier work
OATP1B3 = test system: OATP1B3; set-up: method as in earlier work; settings: in vitro; ref 30,43-55 and in-house data from Merck & Co.; cited from earlier work
OATP1B = test system: OATP1B; set-up: method as in supplement [18]; settings: plasma AUC ratio; ref supplement [18]; cited from earlier work
MRP2 = settings: in vitro; bracket not explained in the table; ref 30,43-55 and in-house data from Merck & Co.; cited from earlier work
rNtcp = test system: rNtcp; set-up: method as in PMID 16258024, PMID 29891589, PMID 21415249, PMID 11883641, PMID 15550721; settings: in vitro; cited from earlier work
[3] = unbound concentration ratio between hepatocyte and plasma; ref supplement [39] rifampicin, [40] asunaprevir, [41] bosentan, ciclosporin, ketoconazole; cited from earlier work
rMrp2 = rMrp2 (Rattus norvegicus, UniProt Q63120); set-up: method as in PMID 16258024, PMID 29891589, PMID 21415249, PMID 11883641, PMID 15550721; settings: in vitro; NI = reported not to inhibit the transporter; cited from earlier work
NTCP = test system: NTCP; set-up: method as in earlier work; settings: in vitro; ref 30,43-55 and in-house data from Merck & Co.; cited from earlier work
rOatp1a4 = settings: in vitro, cited from earlier work
[4] = pioglitazone 0.4 mg/kg iv, site E

rMrp2, sequence (Q63120 whole entry): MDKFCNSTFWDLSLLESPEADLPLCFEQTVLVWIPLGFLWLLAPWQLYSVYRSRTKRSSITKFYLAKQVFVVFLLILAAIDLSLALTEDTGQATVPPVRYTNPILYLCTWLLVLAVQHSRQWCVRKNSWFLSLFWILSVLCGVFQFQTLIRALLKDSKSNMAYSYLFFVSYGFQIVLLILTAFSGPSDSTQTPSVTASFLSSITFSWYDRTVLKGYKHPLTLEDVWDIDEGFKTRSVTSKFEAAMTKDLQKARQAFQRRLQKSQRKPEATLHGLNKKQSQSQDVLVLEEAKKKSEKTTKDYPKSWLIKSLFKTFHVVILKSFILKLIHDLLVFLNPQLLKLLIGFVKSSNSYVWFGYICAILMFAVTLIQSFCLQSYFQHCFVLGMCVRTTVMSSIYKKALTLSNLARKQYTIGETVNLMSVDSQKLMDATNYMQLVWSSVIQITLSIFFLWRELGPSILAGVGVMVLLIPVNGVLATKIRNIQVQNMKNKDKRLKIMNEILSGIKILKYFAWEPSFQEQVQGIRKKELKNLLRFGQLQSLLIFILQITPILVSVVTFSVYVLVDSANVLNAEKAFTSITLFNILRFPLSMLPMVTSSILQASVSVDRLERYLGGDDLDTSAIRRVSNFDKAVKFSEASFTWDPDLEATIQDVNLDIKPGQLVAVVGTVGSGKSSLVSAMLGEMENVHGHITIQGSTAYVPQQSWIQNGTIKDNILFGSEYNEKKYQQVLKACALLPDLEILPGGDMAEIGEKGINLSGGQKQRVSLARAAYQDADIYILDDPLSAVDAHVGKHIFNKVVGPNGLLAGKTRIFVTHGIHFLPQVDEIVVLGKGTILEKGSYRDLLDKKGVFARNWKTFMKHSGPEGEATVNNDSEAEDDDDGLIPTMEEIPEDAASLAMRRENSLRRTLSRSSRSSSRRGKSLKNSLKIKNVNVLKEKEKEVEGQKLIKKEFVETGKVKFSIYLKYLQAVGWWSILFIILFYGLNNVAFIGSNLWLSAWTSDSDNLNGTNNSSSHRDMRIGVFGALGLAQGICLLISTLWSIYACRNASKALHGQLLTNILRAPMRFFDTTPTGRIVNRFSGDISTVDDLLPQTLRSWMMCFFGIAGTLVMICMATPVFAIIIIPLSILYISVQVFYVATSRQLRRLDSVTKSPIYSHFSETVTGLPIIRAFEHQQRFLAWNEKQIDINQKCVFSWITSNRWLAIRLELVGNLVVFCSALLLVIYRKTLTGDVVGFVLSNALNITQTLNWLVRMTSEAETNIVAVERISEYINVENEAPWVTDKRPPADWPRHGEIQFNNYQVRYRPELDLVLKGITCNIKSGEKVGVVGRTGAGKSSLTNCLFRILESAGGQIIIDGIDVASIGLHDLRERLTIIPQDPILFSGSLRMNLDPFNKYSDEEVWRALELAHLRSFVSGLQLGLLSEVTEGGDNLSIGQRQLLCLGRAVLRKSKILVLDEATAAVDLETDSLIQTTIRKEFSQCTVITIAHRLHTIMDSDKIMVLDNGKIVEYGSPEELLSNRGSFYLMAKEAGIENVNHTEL

CCOc1ccc(C[C@@H](CN(CCN(CC(=O)[O-])CC(=O)[O-])CC(=O)[O-])N(CC(=O)[O-])CC(=O)[O-])cc1.[Gd+3].[H+].[H+] [gadoxetate, Gadoxetate]
hepatic extraction ratio (E) (rOatp1b; rat, in vivo): > 0.95 | khe, new value in unified units (rOatp1b; rat, in vivo): 11.1 mL/min | khe, original value (rOatp1b; rat, in vivo): 1.31 mL/ min/ mL tissue volume | hepatic extraction [1]: approx. 20%

C=C[C@@H]1C[C@]1(NC(=O)[C@@H]1C[C@@H](Oc2ncc(OC)c3ccc(Cl)cc23)CN1C(=O)[C@@H](NC(=O)OC(C)(C)C)C(C)(C)C)C(=O)NS(=O)(=O)C1CC1 [Asunaprevir]
Cmax ([2]; human plasma, daily dose 200 mg (asunaprevir), read-out: Cmax (µM) [Daily Dose]): 0.76 µM | IC50 (OATP1B3): 0.65 µM | AUCR of rosuvastatin (presence vs absence of inhibitor) (OATP1B): < 2 fold | IC50 (MRP2): 4 µM | IC50 (rNtcp): 0.6 µM | Kpuu [3]: 11.5 | Simple Effect Size (95% CI) K^trans (rOatp1b; asunaprevir 5 mg/kg iv, site E): 0.24 (−0.01, 0.48) mL/min/mL liver | Simple Effect Size (95% CI) khe (rOatp1b; asunaprevir 5 mg/kg iv, site E): 2.34 (−0.92, 5.60) mL/min/mL liver | IC50 (rMrp2): 11 µM

COc1ccccc1Oc1c(NS(=O)(=O)c2ccc(C(C)(C)C)cc2)nc(-c2ncccn2)nc1OCCO [Bosentan]
Cmax ([2]; human plasma, daily dose 250 mg, read-out: Cmax (µM) [Daily Dose]): 3.3 µM | IC50 (OATP1B3): 5.2 µM | IC50 (MRP2): > 100 µM | IC50 (rNtcp): 0.4 µM | Kpuu [3]: 3 | Simple Effect Size (95% CI) K^trans (rOatp1b; bosentan 2 mg/kg iv, site G1, subjects 3, 4, 6 excluded): 0.28 (−0.32, 0.88) mL/min/mL liver | Simple Effect Size (95% CI) K^trans (rOatp1b; bosentan 4–6 mg/kg iv, site G2): 0.07 (−0.12, 0.26) mL/min/mL liver | Simple Effect Size (95% CI) khe (rOatp1b; bosentan 2 mg/kg iv, site G1, subjects 3, 4, 6 excluded, khe physiologically implausible): −54.22 (−197.97, 89.53) mL/min/mL liver | Simple Effect Size (95% CI) khe (rOatp1b; bosentan 4–6 mg/kg iv, site G2): 1.07 (−1.13, 3.26) mL/min/mL liver | IC50 (NTCP): 18 µM

CCc1ccc(CCOc2ccc(CC3SC(=O)NC3=O)cc2)nc1 (centres unmarked) [Pioglitazone]
Cmax ([2]; human plasma, daily dose 30 mg, read-out: Cmax (µM) [Daily Dose]): 4.8 µM | IC50 (OATP1B3): 3.41 µM | IC50 (MRP2): > 133 µM | Simple Effect Size (95% CI) K^trans (rOatp1b; [4]): 0.13 (−0.05, 0.32) mL/min/mL liver | Simple Effect Size (95% CI) khe (rOatp1b; [4]): 1.21 (−0.10, 2.51) mL/min/mL liver

CO[C@H]1/C=C/O[C@@]2(C)Oc3c(C)c(O)c4c(O)c(c(/C=N/N5CCN(C)CC5)c(O)c4c3C2=O)NC(=O)/C(C)=C\C=C\[C@H](C)[C@H](O)[C@@H](C)[C@@H](O)[C@@H](C)[C@H](OC(C)=O)[C@@H]1C [Rifampicin]
Cmax ([2]; human plasma, daily dose 600 mg, read-out: Cmax (µM) [Daily Dose]): 0.85 µM | Cmax ([2]; human, ref supplement [17], read-out: typical maximum plasma concentration (Cmax) in clinical studies): 4 to 20 µM | IC50 (OATP1B3): 0.11 µM | IC50 (MRP2): 55 µM | Ki (MRP2): 24.3 µM | Simple Effect Size (95% CI) khe (rOatp1b; * p < 0.05, rifampicin 2 mg/kg iv, site G2): 7.20 mL/min/mL liver | IC50 (rOatp1a4; read-out: IC50 (µM) rOatp1a4): 1.3 µM | Ki (rOatp1a4; read-out: Ki (µM) rOatp1a4): 2.9 µM | IC50 (rMrp2): 20 to 53 µM | IC50 (NTCP): 277 µM
